Here are results for four compounds from publication PMC6149822, “A New Series of Pyrrole-Based Chalcones: Synthesis and Evaluation of Antimicrobial Activity, Cytotoxicity, and Genotoxicity” (Molecules : A Journal of Synthetic Chemistry and Natural …, 2017).

Each structure is given as a SMILES string. Converted amounts (≈) assume the structure as drawn.

For one data set, the system named is S. aureus (ATCC 25923). Put plainly: Microdilution susceptibility assay (MIC). It counts as cell-based. Conditions: Staphylococcus aureus, ATCC25923. Here is the method: (§1) Compounds 1–10 were screened for their antimicrobial activity against gram-negative bacteria, gram-positive bacteria, and yeasts, listed in Table 1. Bacteria were grown in Mueller-Hinton Broth and yeasts were grown in Sabouraud Dextrose Broth (SDB) during experiments. Overnight cultures were prepared routinely by subculturing of stock culture onto Mueller-Hinton Agar for bacteria and Sabouraud Dextrose Agar for yeasts.
(§2) Microdilution susceptibility assay was used for the determination of antibacterial and anticandidal efficacy of compounds 1–10. Chloramphenicol and ketoconazole were used as positive controls for bacteria and yeasts, respectively. All experiments were designed according to the Clinical Laboratory Standards Institute (CLSI). All chemicals were dissolved in dimethyl sulfoxide (DMSO) to obtain stock solution (10 mg/mL). Two-fold serial dilutions (800, 400, 200...0.78 µg/mL) of the compounds were prepared from stock solutions with dH2O. 100 µL of each solution was transferred to 96-well microtiter plates and 100 µL of 10^6 CFU/mL of bacteria and 2 × 10^3 of CFU/mL yeast were added to related wells. As negative controls, wells including microorganisms without agents and wells including agents without microorganisms were used. The plates were kept at 35 °C for 18–20 h and the growth was determined with resazurin (20 mg/mL). Assays were carried out in triplicate.

Another data set deals with E. faecalis (ATCC 29212). As to the kind of experiment: Microdilution susceptibility assay (MIC). Conditions: Enterococcus faecalis, ATCC29212. The data set is classed as cell-based. Here is the method: as §1, §2
A general note: Broth dilution looks for growth in wells or tubes with falling amounts of substance.

Another data set relates to E. coli (ATCC 25922). Put plainly: Microdilution susceptibility assay (MIC). Particulars: Escherichia coli, ATCC25922. The data set is classed as cell-based. Here is the method:
as §1, §2

The test system of data set [1] is K. pneumoniae (ATCC 700603). As to the kind of experiment: Microdilution susceptibility assay (MIC). The data set is classed as cell-based. Particulars: Klebsiella pneumoniae, ATCC700603. Here is the method: as §1, §2
The test system of another data set is E. faecalis (ATCC 51299). As to the kind of experiment: Microdilution susceptibility assay (MIC). It counts as cell-based. Particulars: Enterococcus faecalis, ATCC51299. On the procedure: as §1, §2
A further data set relates to C. albicans (ATCC 90028). Put plainly: Microdilution susceptibility assay (MIC). It counts as cell-based. Particulars: Candida albicans, ATCC90028. Here is the method: as §1, §2
The subject of data set [2] is HepG2 human hepatocellular carcinoma cell line. As to the kind of experiment: MTT assay. It counts as cell-based. Particulars: for IC50: Homo sapiens, HepG2. Here is the method: (§3) The anticancer effects of compounds 1–10 on A549 human lung adenocarcinoma (ATCC® CCL-185™), HepG2 human hepatocellular carcinoma (ATCC® HB-8065™), and C6 rat glioma (ATCC® CCL107™) cell lines were assessed using 3-(4,5-Dimethylthiazol-2-yl)-2,5-diphenyltetrazolium bromide (MTT) assay, whereas the selectivity of compounds 1–10 was tested using NIH/3T3 mouse embryonic fibroblast cell line (ATCC® CRL-1658™, London, UK). All cell lines were incubated according to the supplier’s recommendations. The cells were seeded as 1 × 10^4 cells into each well of the 96-well plates. MTT assay was performed as previously described. The compounds were tested between the concentrations equal to 1 mM and 0.000316 mM (1.0, 0.316, 0.10, 0.0316, 0.01, 0.00316, 0.001, 0.000316 mM). Stock solutions of compounds were prepared in dimethyl sulfoxide (DMSO) and further dilutions were made with fresh culture medium. The final DMSO concentration was under 1% [34] and cisplatin was used as a positive control. Inhibition % was calculated for each concentration according to the formula below, and IC50 values were determined by plotting a dose–response curve of inhibition % versus compound concentrations tested. All experiments were performed in quadruplicate.Inhibition % = 100 − [(ODtest compound − ODblank/ODsolvent control − ODblank)] × 100(1)
For orientation: Tetrazolium dyes change colour on reduction, which living cells bring about.

In data set [3] the test system is NIH/3T3 mouse embryonic fibroblast cell line. As to the kind of experiment: MTT assay. The data set is classed as cell-based. Particulars: for IC50: Mus musculus, NIH3T3, healthy cells for selectivity. Here is the method:
as §3

The test system of data set [4] is A549 human lung adenocarcinoma cell line. Put plainly: MTT assay. The data set is classed as cell-based. Particulars: for IC50: Homo sapiens, A549. Here is the method: as §3
The test system of the next data set is C6 rat glioma cell line. Put plainly: MTT assay. The data set is classed as cell-based. Conditions: for IC50: Rattus norvegicus, C6. Here is the method: as §3
In the next data set the test system is C. glabrata (ATCC 90030). Put plainly: Microdilution susceptibility assay (MIC). The data set is classed as cell-based, Candida glabrata. Conditions: Nakaseomyces glabratus, ATCC90030. On the procedure: as §1, §2
In the next data set the test system is C. krusei (ATCC 6258). As to the kind of experiment: Microdilution susceptibility assay (MIC). It counts as cell-based, Candida krusei. Particulars: Pichia kudriavzevii, ATCC6258. Here is the method: as §1, §2
The test system of data set [5] is C. parapsilosis (ATCC 22019). Put plainly: Microdilution susceptibility assay (MIC). It counts as cell-based, Candida parapsilosis. Conditions: Lodderomyces parapsilosis, ATCC22019. On the procedure: as §1, §2
In the next data set the test system is C. glabrata. Put plainly: ATP luminescence microbial cell viability assay. It counts as cell-based, Candida glabrata. Conditions: 24 h treatment, result in words. Here is the method: A model from BioTek Instruments Inc. combined with a BacTiter-Glo^TM Microbial Cell Viability assay (Promega Corp., Madison, WI, USA) was used to provide a sensitive and rapid method for determining the number of viable microbial cells in culture based on quantitation of the ATP present. […] After incubation, cultures were added into the wells (final concentration of bacteria was 5 × 10^5 CFU/mL and 2.5 × 10^6 CFU/mL for yeasts). After adding the BacTiter reagent, incubation time for bacteria and yeasts was 5 min and 15 min, respectively.
The assay generates a “glow-type” luminescent signal, produced by the luciferase reaction. Briefly, after chemicals and strains were incubated for 24 h, 100 µL of the culture was taken from each well and mixed with the same volume of the BacTiter-Glo™ reagent in a white, opaque-walled microtiter plate. Control wells containing medium without cells were prepared to obtain a value for background luminescence. Cells without compound were used as an ATP-positive control. The microplates were further incubated under agitation for 7 min. Bioluminescence was recorded in a multi-detection microplate reader (BioTek Synergy 2 Multi-Mode Microplate Reader, BioTek Instruments, Winooski, VT, USA). In Figure 3, results were given as percentage of untreated control, which is set at 100%. Experiments were performed in triplicate and each sample was measured in four replicates.

As for `Cn1cccc1C(=O)C=Cc1ccc(-c2ccccc2Cl)o1` [Compound 5, 1-(1-Methyl-1H-pyrrol-2-yl)-3-(5-(2-chlorophenyl)furan-2-yl)prop-2-en-1-one], the melting point (as a rule, the temperature, or range, at which the solid turns liquid) is 95 to 96 °C. Besides, in the data set on S. aureus (ATCC 25923), the MIC (commonly the lowest concentration found to suppress growth) came out at 400 µg/mL (≈ 1280 µM). For the same compound, in the data set on E. faecalis (ATCC 29212), the MIC came to 200 µg/mL (≈ 642 µM). In addition, the MIC against E. coli (ATCC 25922) worked out at 400 µg/mL (≈ 1280 µM). Moreover, the MIC in data set [1] amounted to 200 µg/mL (≈ 642 µM). Also, the lowest concentration to inhibit growth against E. faecalis (ATCC 51299) (MIC) was 200 µg/mL (≈ 642 µM). Further, in the data set with C. albicans (ATCC 90028), the MIC was 200 µg/mL (≈ 642 µM). Further, the IC50 (in general, the concentration needed to halve the response being measured) in [2] turned out to be 31 µg/mL (≈ 99.4 µM). This compound also had an IC50 in data set [3] of 45 µg/mL (≈ 144 µM). The compound also gave an IC50 in data set [4] of 311 µg/mL (≈ 998 µM). This compound showed an IC50 with C6 rat glioma cell line greater than 311 µg/mL. Also, the MIC in the data set on C. glabrata (ATCC 90030) turned out to be 200 µg/mL (≈ 642 µM). The compound further displayed an MIC in the data set with C. krusei (ATCC 6258) of 200 µg/mL (≈ 642 µM). This compound yielded an MIC in data set [5] of 100 µg/mL (≈ 321 µM).
As for `N.N.[Cl][Pt][Cl]` [Cisplatin, reference compound], the “IC50 HepG2 Cell Line” value in data set [2] was 38 µg/mL. Besides, in [3] (healthy cells for selectivity), the “IC50 NIH/3T3 Cell Line” value is greater than 300 µg/mL. Also, the “IC50 A549 Cell Line” value in [4] came to 19 µg/mL. Also, the “IC50 C6 Cell Line” value in the data set with C6 rat glioma cell line was found to be 46 µg/mL.
With `Cn1cccc1C(=O)C=Cc1ccc(-c2cccc(Cl)c2)o1` [Compound 6, 1-(1-Methyl-1H-pyrrol-2-yl)-3-(5-(3-chlorophenyl)furan-2-yl)prop-2-en-1-one], the melting point lay in the range of 121 to 122 °C. This compound also registered an MIC against S. aureus (ATCC 25923) of 200 µg/mL (≈ 642 µM). Moreover, the MIC against E. faecalis (ATCC 29212) was 200 µg/mL (≈ 642 µM). The MIC against E. coli (ATCC 25922) stood at 100 µg/mL (≈ 321 µM). The compound also returned an MIC in data set [1] of 200 µg/mL (≈ 642 µM). In addition, the MIC in the data set with E. faecalis (ATCC 51299) worked out at 200 µg/mL (≈ 642 µM). The compound further displayed an MIC in the data set on C. albicans (ATCC 90028) of 200 µg/mL (≈ 642 µM). In addition, half-maximal inhibition in data set [2] (IC50) was put at 98 µg/mL (≈ 314 µM). In addition, half-maximal inhibition in data set [3] (IC50) required 38 µg/mL (≈ 122 µM). Also, the midpoint of inhibition in [4], the IC50, lay at 98 µg/mL (≈ 314 µM). The IC50 in the data set on C6 rat glioma cell line was 103 µg/mL (≈ 330 µM). For the same compound, the MIC in the data set on C. glabrata (ATCC 90030) came out at 200 µg/mL (≈ 642 µM). Besides, the MIC with C. krusei (ATCC 6258) worked out at 200 µg/mL (≈ 642 µM). Also, the MIC in [5] came to 100 µg/mL (≈ 321 µM).
For the compound `Cn1cccc1C(=O)C=Cc1ccc(-c2ccc(Cl)cc2[N+](=O)[O-])o1` [Compound 4, 1-(1-Methyl-1H-pyrrol-2-yl)-3-(5-(2-nitro-4-chlorophenyl)furan-2-yl)prop-2-en-1-one], the melting point was 133 to 134 °C. In the data set with S. aureus (ATCC 25923), the MIC stood at 100 µg/mL (≈ 280 µM). This compound also gave an MIC against E. faecalis (ATCC 29212) of 200 µg/mL (≈ 561 µM). Moreover, 100 µg/mL (≈ 280 µM) was the least that counted as inhibitory in the data set with E. coli (ATCC 25922) (MIC). Besides, the MIC in [1] amounted to 100 µg/mL (≈ 280 µM). In the data set on E. faecalis (ATCC 51299), this compound had an MIC of 200 µg/mL (≈ 561 µM). This compound came in with an MIC against C. albicans (ATCC 90028) of 200 µg/mL (≈ 561 µM). In addition, in data set [2], the IC50 came out at 100 µg/mL (≈ 280 µM). In addition, the IC50 in data set [3] is 36 µg/mL (≈ 101 µM). For the same compound, the IC50 in data set [4] is greater than 357 µg/mL. The compound further returned an IC50 in the data set with C6 rat glioma cell line greater than 357 µg/mL. This compound also yielded an MIC in the data set on C. glabrata (ATCC 90030) of 100 µg/mL (≈ 280 µM). Also, the lowest concentration to inhibit growth against C. krusei (ATCC 6258) (MIC) was 200 µg/mL (≈ 561 µM). Besides, the “antifungal activity in ATP bioluminescence assay” value with C. glabrata is “antifungal activity close to ketoconazole”. The same compound showed an MIC in [5] of 50 µg/mL (≈ 140 µM).
